Reference: US5502164A, “Peptide compounds having therapeutic activity” (priority 1992, dated 1996)
Where a SMILES comes first, the peptide text is derived from it. [ ]: non-standard residue; d: D form. The star is where a group is joined. dNMeD = CN[C@H](CC(=O)O)C(=O)O; Nle = CCCC[C@H](N)C(=O)O; X1 = O=C(Cc1ccc(O)cc1)*

Target: T1, CCK-A receptors in rat pancreatic membranes (Rattus norvegicus, UniProt P30551)
T1 construct: CCK-A receptors in rat pancreatic membranes; from tissue; host or cells: rat pancreas (membranes)
T1 sequence (P30551 1-444): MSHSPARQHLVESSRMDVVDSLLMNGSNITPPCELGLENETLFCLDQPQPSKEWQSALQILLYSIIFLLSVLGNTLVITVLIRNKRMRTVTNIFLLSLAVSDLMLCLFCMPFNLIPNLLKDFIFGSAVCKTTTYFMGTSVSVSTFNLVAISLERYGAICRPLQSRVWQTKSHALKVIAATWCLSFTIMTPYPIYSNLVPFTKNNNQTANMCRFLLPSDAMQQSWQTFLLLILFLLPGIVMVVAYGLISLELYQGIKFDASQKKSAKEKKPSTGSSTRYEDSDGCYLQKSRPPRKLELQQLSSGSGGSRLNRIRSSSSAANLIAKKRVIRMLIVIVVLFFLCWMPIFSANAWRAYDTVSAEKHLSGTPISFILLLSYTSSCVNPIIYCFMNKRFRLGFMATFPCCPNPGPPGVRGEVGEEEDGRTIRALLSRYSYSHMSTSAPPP
Assay: Test B: CCK-A binding
Conditions: against Bolton Hunter 125I-CCK-8 and 3H-L364718, read-out: binding constant (Ki) at CCK-A receptors
Protocol: Evaluation of a test compound for its ability to bind to CCK-A receptors in rat pancreatic membranes is measured against the binding of Bolton Hunter^125 I-CCK-8 and ^3 H-L364718 to rat pancreas according to the procedures of Chang, Lotti, Chan and Kunkel (Molecular Pharmacology, 30:212-216, 1986).

`CCCC[C@H](NC(=O)Cc1ccc(O)cc1)C(=O)NCC(=O)N[C@@H](Cc1c[nH]c2ccccc12)C(=O)N[C@@H](CCCC)C(=O)N(C)[C@H](CC(=O)O)C(=O)N[C@@H](Cc1ccccc1)C(N)=O` [Example 49, Hpa-Ahx-Gly-Trp-Ahx-MeDAsp-Phe-NH2] (X1-[Nle]GW[Nle][dNMeD]F-NH2) showed a Ki of 0.03 nM.
